Test results taken from PubChem BioAssay AID2060619 (Molecular Pharmacology Branch, DTP, NCI, 2025).

Test system: 323965-272-R-J2-PDC complex spheroid viability
Experiment: Anticancer human tumor 323965-272-R-J2-PDC patient-derived pancreatic carcinoma cell line growth inhibition [CLK]
Settings: for IC50: curve of first compound; for viability, T/C: stronger effect = lower value
Method in brief: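 Multi-cell-type spheroids combined patient-derived tumor cells with HUVEC endothelial cells and human mesenchymal stem cells. Paired agents were dosed in half-log steps down from about clinical Cmax, or from 10 microM where Cmax was unknown.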

[1] = second compound 0.0316 µM, first compound 0.0316 µM
[2] = second compound 0.0316 µM, first compound 0.1 µM
[3] = second compound 0.0316 µM, first compound 0.316 µM
[4] = second compound 0.0316 µM, first compound 1 µM
[5] = second compound 0.0316 µM, first compound 3.16 µM
[6] = second compound 0.0316 µM, first compound 10 µM
[7] = second compound 0.1 µM, first compound 0.0316 µM
[8] = second compound 0.1 µM, first compound 0.1 µM
[9] = second compound 0.1 µM, first compound 0.316 µM
[10] = second compound 0.1 µM, first compound 1 µM
[11] = second compound 0.1 µM, first compound 3.16 µM
[12] = second compound 0.1 µM, first compound 10 µM
[13] = second compound 0.316 µM, first compound 0.0316 µM
[14] = second compound 0.316 µM, first compound 0.1 µM
[15] = second compound 0.316 µM, first compound 0.316 µM
[16] = second compound 0.316 µM, first compound 1 µM
[17] = second compound 0.316 µM, first compound 3.16 µM
[18] = second compound 0.316 µM, first compound 10 µM
[19] = second compound 1 µM, first compound 0.0316 µM
[20] = second compound 1 µM, first compound 0.1 µM
[21] = second compound 1 µM, first compound 0.316 µM
[22] = second compound 1 µM, first compound 1 µM
[23] = second compound 1 µM, first compound 3.16 µM
[24] = second compound 1 µM, first compound 10 µM
[25] = second compound 3.16 µM, first compound 0.0316 µM
[26] = second compound 3.16 µM, first compound 0.1 µM
[27] = second compound 3.16 µM, first compound 0.316 µM
[28] = second compound 3.16 µM, first compound 1 µM
[29] = second compound 3.16 µM, first compound 3.16 µM
[30] = second compound 3.16 µM, first compound 10 µM
[31] = second compound 10 µM, first compound 0.0316 µM
[32] = second compound 10 µM, first compound 0.1 µM
[33] = second compound 10 µM, first compound 0.316 µM
[34] = second compound 10 µM, first compound 1 µM
[35] = second compound 10 µM, first compound 3.16 µM
[36] = second compound 10 µM, first compound 10 µM
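Further: spheroids exposed to agents for seven days before readout.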
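Wherever viability, T/C is given: percent of DMSO vehicle control wells so 100% = untreated growth.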

`Nc1ccn(C2OC(CO)C(O)C2(F)F)c(=O)n1` (centres undefined) + CN1CCN(c2cc(C(=O)Nc3cc4cc(-c5cnn(C)c5)ccc4cn3)ccn2)CC1 showed an IC50 (second compound 0.0316 µM) of under 31.6 nM, an IC50 (second compound 0.1 µM) of under 31.6 nM and an IC50 (second compound 0.316 µM) of under 31.6 nM. The IC50 (second compound 1 µM) was under 31.6 nM, the IC50 (second compound 3.16 µM) was under 31.6 nM and the IC50 (second compound 10 µM) was under 31.6 nM. It also gave a viability, T/C [1] of 35.2%, a viability, T/C [2] of 30.6% and a viability, T/C [3] of 33.9%. It also gave a viability, T/C [4] of 36.6%, a viability, T/C [5] of 25.3% and a viability, T/C [6] of 24.8%. It also gave a viability, T/C [7] of 31.1%, a viability, T/C [8] of 29.9% and a viability, T/C [9] of 28.6%. For the same compound, the viability, T/C [10] was 23%, the viability, T/C [11] was 20.9% and the viability, T/C [12] was 19.5%. The viability, T/C [13] was 18.4%, the viability, T/C [14] was 20.2% and the viability, T/C [15] was 16.6%. For the same compound, the viability, T/C [16] was 19.8%, the viability, T/C [17] was 15.2% and the viability, T/C [18] was 13.6%. It also gave a viability, T/C [19] of 2.74%, a viability, T/C [20] of 3.71% and a viability, T/C [21] of 5.04%. The viability, T/C [22] was 3.41%, the viability, T/C [23] was 3.52% and the viability, T/C [24] was 1.82%. For the same compound, the viability, T/C [25] was 3.79%, the viability, T/C [26] was 4.62% and the viability, T/C [27] was 5.76%. For the same compound, the viability, T/C [28] was 4.04%, the viability, T/C [29] was 4.01% and the viability, T/C [30] was 6.04%. For the same compound, the viability, T/C [31] was 3.95%, the viability, T/C [32] was 5.3% and the viability, T/C [33] was 4.73%. The viability, T/C [34] was 4.61%, the viability, T/C [35] was 5.93% and the viability, T/C [36] was 4.49%.

Work on `O=C(c1cc(Cc2n[nH]c(=O)c3ccccc23)ccc1F)N1CCN(C(=O)C2CC2)CC1` + CN1CCN(c2cc(C(=O)Nc3cc4cc(-c5cnn(C)c5)ccc4cn3)ccn2)CC1 yielded an IC50 (second compound 0.0316 µM) of over 10000 nM, an IC50 (second compound 0.1 µM) of over 10000 nM and an IC50 (second compound 0.316 µM) of under 31.6 nM. For the same compound, the IC50 (second compound 1 µM) was under 31.6 nM, the IC50 (second compound 3.16 µM) was under 31.6 nM and the IC50 (second compound 10 µM) was under 31.6 nM. For the same compound, the viability, T/C [1] was 91.1%, the viability, T/C [2] was 93.4% and the viability, T/C [3] was 87.4%. The viability, T/C [4] was 102%, the viability, T/C [5] was 93.5% and the viability, T/C [6] was 80.2%. For the same compound, the viability, T/C [7] was 70.6%, the viability, T/C [8] was 81.2% and the viability, T/C [9] was 68.7%. It also gave a viability, T/C [10] of 64.8%, a viability, T/C [11] of 65.6% and a viability, T/C [12] of 56.2%. It also gave a viability, T/C [13] of 23.2%, a viability, T/C [14] of 26.9% and a viability, T/C [15] of 22.6%. For the same compound, the viability, T/C [16] was 26.6%, the viability, T/C [17] was 24.9% and the viability, T/C [18] was 26.9%. For the same compound, the viability, T/C [19] was 4.07%, the viability, T/C [20] was 7.03% and the viability, T/C [21] was 3.28%. The viability, T/C [22] was 3.68%, the viability, T/C [23] was 3.67% and the viability, T/C [24] was 3.82%. The viability, T/C [25] was 5.15%, the viability, T/C [26] was 4.92% and the viability, T/C [27] was 4.78%. The viability, T/C [28] was 4.57%, the viability, T/C [29] was 5.09% and the viability, T/C [30] was 7.05%. The viability, T/C [31] was 4.14%, the viability, T/C [32] was 5.28% and the viability, T/C [33] was 5.97%. The viability, T/C [34] was 4.83%, the viability, T/C [35] was 4.72% and the viability, T/C [36] was 6.29%.
